Measurements as given in publication doi:10.1101/2021.10.07.463234v2 (biorxiv, 2021).
Structures can show the parent of a compound that is named as a salt.

Target: SARS-CoV-2 Mac1 (Severe acute respiratory syndrome coronavirus 2, UniProt P0DTD1)
Assay: biochemical
Conditions: for inhibition at 100 µM: read-out: %inhibition; for %inhibition: 100 µM, inhibitor

Work on `CC(C)(C)C#Cc1cc(N(C(=O)[C@H]2CC[C@H](C)CC2)[C@H]2CC[C@H](O)CC2)c(C(=O)O)s1` [Lomibuvir (VX-222, VCH-222)] yielded an inhibition at 100 µM of 2.87%.
`CC(C)=CCOc1ccc(/C=C/C(=O)c2ccc(OCC=C(C)C)cc2OCC(=O)O)cc1` [Sofalcone] was tested, and the inhibition at 100 µM was 14.1%.
In the case of `O=C(O)/C=C/C(=O)O` [Fumaric acid], the inhibition at 100 µM is reported as 1.89%.
In the case of `CCCC[N+]1(C)[C@@H]2C[C@@H](OC(=O)[C@H](CO)c3ccccc3)C[C@H]1[C@@H]1O[C@@H]12` (some centres unmarked) [Butylscopolamine Bromide], the inhibition at 100 µM is reported as 0%.
`NCc1ccccc1CC(=O)N[C@@H]1C(=O)N2C(C(=O)O)=C(CSc3nnnn3CC(=O)O)CS[C@H]12` [Ceforanide] showed an inhibition at 100 µM of 0%.
`Clc1ccc(C(Cn2ccnc2)OCc2ccsc2Cl)c(Cl)c1` (centres unmarked) [Tioconazole] was tested, and the inhibition at 100 µM was 7.13%.
`CCC1=C(C)CN(C(=O)NCCc2ccc(S(=O)(=O)NC(=O)N[C@H]3CC[C@H](C)CC3)cc2)C1=O` [Glimepiride] was tested, and the inhibition at 100 µM was 22.5%.
For `COc1cc(C(=O)NCc2ccc(OCCN(C)C)cc2)cc(OC)c1OC` [Tribenzagan Hydrochloride], the inhibition at 100 µM was 0%.
Compound `CC1CCc2c(N3CCC(O)CC3)c(F)cc3c(=O)c(C(=O)O)cn1c23` (centres unmarked) [Nadifloxacin] has an inhibition at 100 µM of 0%.
For `C=CC(=O)Nc1cccc(Oc2nc(Nc3ccc(N4CCN(C)CC4)cc3)nc3ccsc23)c1` [Olmutinib (HM61713, BI 1482694)], the inhibition at 100 µM was 22.3%.
In the case of `CC(C)OC(=O)[C@H](C)N[P@](=O)(CO[C@H](C)Cn1cnc2c(N)ncnc21)Oc1ccccc1` [Tenofovir Alafenamide (GS-7340)], the inhibition at 100 µM is reported as 10.7%.
Work on `O=C(O)P(=O)(O)O` [Foscarnet Sodium] yielded an inhibition at 100 µM of 2.46%.
Work on `C[C@@H]1[C@H](O)[C@@H](C)/C=C/C=C/C=C/C=C/C=C/C=C/C=C/[C@H](O[C@@H]2O[C@H](C)[C@@H](O)[C@H](N)[C@@H]2O)C[C@@H]2O[C@](O)(C[C@@H](O)C[C@@H](O)[C@H](O)CC[C@@H](O)C[C@@H](O)CC(=O)O[C@H]1C)C[C@H](O)[C@H]2C(=O)O` [Amphotericin B] yielded an inhibition at 100 µM of 2.16%.
`O=C(NCC(O)CO)c1c(I)c(C(=O)NCC(O)CO)c(I)c(N(CCO)C(=O)CO)c1I` (centres unmarked) [Ioversol] gave an inhibition at 100 µM of 25.5%.
Compound `CCN(CC)C(=O)/C(C#N)=C/c1cc(O)c(O)c([N+](=O)[O-])c1` [Entacapone] has an inhibition at 100 µM of 0%.
`CC(=O)Nc1ccc(CC(=O)O)cc1` [Actarit] was tested, and the inhibition at 100 µM was 2.1%.
`NS(=O)(=O)c1cc2c(cc1C(F)(F)F)NC(Cc1ccccc1)NS2(=O)=O` (centres unmarked) [Bendroflumethiazide] showed an inhibition at 100 µM of 0%.
Work on `CN(C)CCc1c[nH]c2ccc(CS(=O)(=O)N3CCCC3)cc12` [Almotriptan Malate] yielded an inhibition at 100 µM of 9.31%.
Work on `CC1(C)S[C@@H]2[C@H](NC(=O)[C@H](C(=O)O)c3ccsc3)C(=O)N2[C@H]1C(=O)O` [Ticarcillin sodium] yielded an inhibition at 100 µM of 7.19%.
Compound `CN(C)CCN(Cc1ccccc1)c1ccccn1` [Tripelennamine HCl] has an inhibition at 100 µM of 0%.
In the case of `CCC1(c2c[nH]cn2)Cc2ccccc2C1` [Atipamezole hydrochloride], the inhibition at 100 µM is reported as 0%.
For `O=C(CCCCCCNC(=O)c1cnc(N(c2ccccc2)c2ccccc2)nc1)NO` [Ricolinostat (ACY-1215)], the inhibition at 100 µM was 3.74%.
Compound `Cc1cc(C2CCCCC2)n(O)c(=O)c1` [Ciclopirox] has an inhibition at 100 µM of 22.9%.
With `O=P1(NCCCl)OCCCN1CCCl` (centres unmarked) [Ifosfamide] the inhibition at 100 µM was 10.6%.
With `CC(=O)OCC(=O)[C@@]1(O)CC[C@H]2[C@@H]3CCC4=CC(=O)CC[C@]4(C)[C@@]3(F)[C@@H](O)C[C@@]21C` [Fludrocortisone acetate] the inhibition at 100 µM was 0%.
`CC(CN1c2ccccc2Sc2ccccc21)N(C)C` (centres unmarked) [Promethazine HCl] showed an inhibition at 100 µM of 0%.
With `COc1cc(C(=O)O)ccc1NC(=O)[C@@H]1N[C@@H](CC(C)(C)C)[C@](C#N)(c2ccc(Cl)cc2F)[C@H]1c1cccc(Cl)c1F` [Idasanutlin (RG-7388)] the inhibition at 100 µM was 0%.
Work on `CCc1c(Cl)c(O)c(Cl)c(O)c1C(=O)O[C@H]1[C@H](O)[C@H](OC)[C@H](OC/C2=C\C=C\C[C@H](O)/C(C)=C/[C@H](CC)[C@@H](O[C@@H]3OC(C)(C)[C@@H](OC(=O)C(C)C)[C@H](O)[C@@H]3O)/C(C)=C/C(C)=C/C[C@@H]([C@@H](C)O)OC2=O)O[C@@H]1C` [Fidaxomicin] yielded an inhibition at 100 µM of 5.76%.
`Cc1ccc(F)c(NC(=O)Nc2ccc(-c3cccc4[nH]nc(N)c34)cc2)c1` [Linifanib (ABT-869)] showed an inhibition at 100 µM of 52.3%.
For `CCc1cc2c(cc1N1CCC(N3CCOCC3)CC1)C(C)(C)c1[nH]c3cc(C#N)ccc3c1C2=O` [Alectinib hydrochloride], the inhibition at 100 µM was 9.69%.
Work on `COc1ccc([C@]2(C#N)CC[C@@H](C(=O)O)CC2)cc1OC1CCCC1` [Cilomilast] yielded an inhibition at 100 µM of 1.61%.
Work on `CC(C(=O)O)c1ccc2c(c1)[nH]c1ccc(Cl)cc12` (centres unmarked) [Carprofen] yielded an inhibition at 100 µM of 0%.
For `Nc1ccc(S(=O)(=O)Nc2ncccn2)cc1` [Sulfadiazine], the “%inhibition” value was 29.9%.
With `CC(C)C(=O)Oc1ccc(CO)cc1[C@H](CCN(C(C)C)C(C)C)c1ccccc1` [Fesoterodine Fumarate] the inhibition at 100 µM was 0%.
In the case of `O=C(O)C(O)[C@H](O)[C@@H](O)[C@H](O)[C@H](O)CO` (some centres unmarked) [Calcium Gluceptate], the inhibition at 100 µM is reported as 0%.
`C[N+]1(C)CCC(OC(=O)C(O)(c2ccccc2)C2CCCC2)C1` (centres unmarked) [Glycopyrrolate] gave an inhibition at 100 µM of 0%.
In the case of `CS(=O)(=O)c1ccc(C2=C(c3ccccc3)C(=O)OC2)cc1` [Rofecoxib], the inhibition at 100 µM is reported as 12.8%.
For `CC(CCc1ccccc1)NCC(O)c1ccc(O)c(C(N)=O)c1` (centres unmarked) [Labetalol HCl], the inhibition at 100 µM was 0%.
`Cc1cccn2c(=O)c(-c3nnn[nH]3)cnc12` [Pemirolast potassium] gave an inhibition at 100 µM of 0%.
`Nc1ncn([C@H]2C[C@H](O)[C@@H](CO)O2)c(=O)n1` [Decitabine] was tested, and the inhibition at 100 µM was 0%.
In the case of `CCOC(=O)N[C@@H]1CC[C@@H]2[C@@H](C1)C[C@H]1C(=O)O[C@H](C)[C@H]1[C@H]2/C=C/c1ccc(-c2cccc(F)c2)cn1` [Vorapaxar], the inhibition at 100 µM is reported as 0%.
In the case of `CCC(=O)NC[C@@H]1C[C@H]1c1cccc2c1CCO2` [Tasimelteon], the inhibition at 100 µM is reported as 0%.
With `NCCc1c[nH]cn1` [Histamine Phosphate] the “%inhibition” value was 0%.
`N[C@@H](Cc1c[nH]c2ccc(O)cc12)C(=O)O` [5-hydroxytryptophan (5-HTP)] was tested, and the inhibition at 100 µM was 0%.
`O=C(OCC(O)CO)c1ccccc1Nc1ccnc2cc(Cl)ccc12` (centres unmarked) [Glafenine HCl] showed an inhibition at 100 µM of 16.2%.
Compound `C[C@@H]1C/C=C/C=C/C=C/C=C/[C@H](O[C@@H]2O[C@H](C)[C@@H](O)[C@H](N)[C@@H]2O)C[C@@H]2O[C@](O)(C[C@@H](O)C[C@H]3O[C@@H]3/C=C/C(=O)O1)C[C@H](O)[C@H]2C(=O)O` [Natamycin] has an inhibition at 100 µM of 0%.
`COC(=O)Nc1nc2cc([S+]([O-])c3ccccc3)ccc2[nH]1` (centres unmarked) [Oxfendazole] gave an inhibition at 100 µM of 0%.
In the case of `CNC(=O)c1ccc(Nc2ncc(C(F)(F)F)c(NCc3nccnc3N(C)S(C)(=O)=O)n2)cc1` [Defactinib (VS-6063, PF-04554878)], the inhibition at 100 µM is reported as 0%.
For `CCOC(=O)O[C@]1(C(=O)OCCl)CC[C@H]2[C@@H]3CCC4=CC(=O)C=C[C@]4(C)[C@H]3[C@@H](O)C[C@@]21C` [Loteprednol etabonate], the inhibition at 100 µM was 0%.
`N=C(N)N` [Guanidine HCl] gave an inhibition at 100 µM of 14%.
`NCCc1ccc(O)c(O)c1` [Dopamine HCl] gave an inhibition at 100 µM of 39.1%.
In the case of `COc1ccccc1N1CCN(CCCNc2cc(=O)n(C)c(=O)n2C)CC1` [Urapidil HCl], the inhibition at 100 µM is reported as 2.64%.
`CO[C@H]1O[C@@H]2O[C@@]3(C)CC[C@H]4[C@H](C)CC[C@@H]([C@H]1C)[C@@]24OO3` [Artemether] was tested, and the inhibition at 100 µM was 0%.
`Cc1c(O)cccc1C(=O)N[C@@H](CSc1ccccc1)[C@H](O)CN1C[C@H]2CCCC[C@H]2C[C@H]1C(=O)NC(C)(C)C` [Nelfinavir Mesylate] was tested, and the inhibition at 100 µM was 0.155%.
In the case of `CC(C)(C)NCC(O)COc1cccc2c1C[C@H](O)[C@H](O)C2` (mixture of isomers) [Nadolol], the inhibition at 100 µM is reported as 21.5%.
With `CCOC(=O)[C@H](CCc1ccccc1)N[C@H]1CCc2ccccc2N(CC(=O)O)C1=O` [Benazepril HCl] the inhibition at 100 µM was 0%.
For `CC(C)(C)C(=O)OCOP(=O)(COCCn1cnc2c(N)ncnc21)OCOC(=O)C(C)(C)C` [Adefovir Dipivoxil], the inhibition at 100 µM was 37.1%.
For `Cc1c(-c2cnccn2)ssc1=S` [Oltipraz], the inhibition at 100 µM was 0%.
`CN1CCN(c2nc(C3=C(c4c[nH]c5ccccc45)C(=O)NC3=O)c3ccccc3n2)CC1` [Sotrastaurin] gave an inhibition at 100 µM of 34.7%.
`CCCCCCCCCCCCCCCC[N+](C)(C)C` [Cetrimonium Bromide (CTAB)] gave an inhibition at 100 µM of 25.1%.
Work on `OCC(CO)N[C@H]1C[C@](O)(CO)[C@@H](O)[C@H](O)[C@H]1O` [Voglibose] yielded an inhibition at 100 µM of 7.63%.
With `Cc1cccc(C)c1N(CC(=O)Nc1ccc(-c2ncon2)cc1)C(=O)C1CCS(=O)(=O)CC1` [Amenamevir] the inhibition at 100 µM was 8.46%.
`Cn1cnc2c(F)c(Nc3ccc(Br)cc3F)c(C(=O)NOCCO)cc21` [Binimetinib (MEK162, ARRY-162, ARRY-438162)] showed an inhibition at 100 µM of 24%.
For `CC1CNc2c(cccc2S(=O)(=O)N[C@@H](CCCNC(=N)N)C(=O)N2CC[C@@H](C)C[C@@H]2C(=O)O)C1` (some centres unmarked) [Argatroban], the “%inhibition” value was 4.667%.
`CN(C)CC(c1ccc(O)cc1)C1(O)CCCCC1` (centres unmarked) [Desvenlafaxine Succinate] was tested, and the inhibition at 100 µM was 7.7%.
For `C[C@@H](O)[C@H]1C(=O)N2C(C(=O)OCOC(=O)C(C)(C)C)=C(SC3CN(C4=NCCS4)C3)[C@H](C)[C@H]12` [Tebipenem Pivoxil], the inhibition at 100 µM was 1.32%.
`O=c1oc2ccccc2c(O)c1Cc1c(O)c2ccccc2oc1=O` [Dicoumarol] showed an inhibition at 100 µM of 13.4%.
`O=C(O)Cc1ccccc1Nc1c(Cl)cccc1Cl` [Diclofenac Sodium] was tested, and the “%inhibition” value was 15.35%.
Work on `CNC(=O)c1cc(Oc2ccc(NC(=O)Nc3ccc(Cl)c(C(F)(F)F)c3)cc2)ccn1` [Sorafenib] yielded an inhibition at 100 µM of 15.7%.
In the case of `COC(=O)N[C@H](C(=O)N1CC2(CC2)C[C@H]1c1nc(-c2ccc3c(c2)C(F)(F)c2cc(-c4ccc5[nH]c([C@@H]6[C@H]7CC[C@H](C7)N6C(=O)[C@@H](NC(=O)OC)C(C)C)nc5c4)ccc2-3)c[nH]1)C(C)C` [Ledipasvir (GS5885)], the inhibition at 100 µM is reported as 23.8%.
`COc1ccc2cccc(CCNC(C)=O)c2c1` [Agomelatine] was tested, and the inhibition at 100 µM was 36.5%.
